Values of other authors in US20200038305A1, “Sunscreen or Sunblock Composition” (Divios LLC, priority 2018, published 2020).

Compound: C=C(C)[C@@H]1CCC(C)=C[C@H]1c1c(O)cc(CCCCC)cc1O [CBD, cannabidiol]
- Aqueous solubility: 10 µg/mL
